Laboratory results as given in US7696246B2 (Ligand Pharmaceuticals Incorporated, priority 1999, dated 2010).
Where two headings read alike, the source gives them in different places.

What was measured:
[1] = molecular target: T1, human AR (Homo sapiens, UniProt P10275); assay: Co-transfection assay, AR antagonist activity (CV-1 cells, in presence of DHT); type: cell-based; conditions: for IC50: read-out: AR Antagonist CV-1 Cells Potency
T1 sequence (P10275 1-920): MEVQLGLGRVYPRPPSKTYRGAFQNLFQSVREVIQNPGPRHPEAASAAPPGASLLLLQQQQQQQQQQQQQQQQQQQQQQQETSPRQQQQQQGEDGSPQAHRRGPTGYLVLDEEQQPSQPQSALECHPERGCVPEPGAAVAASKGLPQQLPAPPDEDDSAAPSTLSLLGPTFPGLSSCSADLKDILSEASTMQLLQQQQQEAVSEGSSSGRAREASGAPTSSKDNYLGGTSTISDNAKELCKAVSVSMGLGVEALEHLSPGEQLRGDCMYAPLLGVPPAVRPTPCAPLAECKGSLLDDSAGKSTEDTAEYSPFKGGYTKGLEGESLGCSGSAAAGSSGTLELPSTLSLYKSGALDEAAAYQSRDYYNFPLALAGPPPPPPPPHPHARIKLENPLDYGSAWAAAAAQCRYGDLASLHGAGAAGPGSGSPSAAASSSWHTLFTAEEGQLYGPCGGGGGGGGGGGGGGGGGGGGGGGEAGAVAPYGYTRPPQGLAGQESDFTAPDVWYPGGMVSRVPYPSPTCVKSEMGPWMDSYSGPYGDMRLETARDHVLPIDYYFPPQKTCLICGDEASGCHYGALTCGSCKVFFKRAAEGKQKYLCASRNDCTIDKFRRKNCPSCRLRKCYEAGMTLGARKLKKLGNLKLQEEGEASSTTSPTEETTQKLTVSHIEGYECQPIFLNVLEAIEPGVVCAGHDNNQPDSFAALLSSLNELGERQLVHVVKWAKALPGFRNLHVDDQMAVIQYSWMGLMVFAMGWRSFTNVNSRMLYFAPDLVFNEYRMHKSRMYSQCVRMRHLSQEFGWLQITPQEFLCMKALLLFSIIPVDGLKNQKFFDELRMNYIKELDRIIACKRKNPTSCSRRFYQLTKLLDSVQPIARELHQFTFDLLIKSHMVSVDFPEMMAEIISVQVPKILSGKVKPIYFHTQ

[2] = molecular target: T1, human AR; assay: Co-transfection assay, AR agonist activity (CV-1 cells, MTV-LUC reporter); type: cell-based; conditions: for EC50: agonist potency EC50
[3] = molecular target: T1, human AR; assay: AR whole cell competitive binding assay (COS-1 cells, 3H-DHT); conditions: 1 nM 3H-DHT, Cheng-Prusoff
Procedure: AR Binding: For the whole cell binding assay, COS-1 cells in 96-well microtiter plates containing DMEM-10% FBS were transfected as described above with the following plasmid DNA: pRShAR (2 ng/well), pRS-β-Gal (50 ng/well) and pGEM (48 ngcwell). Six hours after transfection, media was removed, the cells were washed with PBS and fresh media was added. The next day, the media was changed to DMEM-serum free to remove any endogenous ligand that might be complexed with the receptor in the cells.
Three replicates were used for each sample. […] The remaining media was removed, the cells were washed three times with PBS to remove unbound ligand, and cells were lysed with a Triton X-100-based buffer.
For the saturation analyses, the difference between the total binding and the nonspecific binding, normalized by the β-Gal rate, was defined as specific binding. […] The Ki values were determined by application of the Cheng-Prusoff equation to the IC50 values, where:
After correcting for non-specific binding, IC50 values were determined. […] The IC50 value was determined graphically from a log-logit plot of the data. The Ki values were determined by application of the Cheng-Prusoff equivuation to the IC50 values, the labeled ligand concentration and the Kd of the labeled ligand.

[4] = CV-1 cells, antagonist potency IC50, DHT at its EC50
[5] = CV-1 cells, percent maximal inhibition, DHT at its EC50
[6] = CV-1 cells, percent maximal response relative to reference agonist DHT

| Compound | IC50 [1, 4] [nM] | AR Antagonist CV-1 Cells Efficacy (%) [1, 5] | EC50 ([2]; CV-1 cells) [nM] | Ki [3] [nM] | IC50 [1] [nM] | AR Agonist CV-1 Cells Efficacy (%) [2, 6] [%] | AR Antagonist CV-1 Cells Efficacy (%) [1] | AR Agonist CV-1 Cells Efficacy (%) [2] [%] |
| --- | --- | --- | --- | --- | --- | --- | --- | --- |
| 4-Methyl-6-(2,4-dichlorolphenyl)-2(1H)-quinolinone [Compound 762] | 63 | 81% | > 10000 |  |  |  |  |  |
| CCCN(c1ccc2[nH]c(=O)cc(C(F)(F)F)c2c1)C(C)CC (racemic) [Compound 255, (±)-6-(N-Propyl-N-1-methylpropyl)amino-4-trifluoromethyl-2(1H)-quinolinone] |  | na (na = not active (i.e. efficacy of <20 and potency of >10,000)) | 25 | 67 | > 10000 | 135 |  |  |
| CC(C)CN(c1ccc2[nH]c(=O)cc(C(F)(F)F)c2c1)C(C)C(F)(F)F (racemic) [Compound 290, (±)-6-(N-Isobutyl-N-2,2,2-trifluoroisopropyl)amino-4-trifluoromethyl-2(1H)-quinolinone] |  | 50% | 32 | > 1000 | 50 | 37 |  |  |
| CC1CCCCN1c1ccc2[nH]c(=O)cc(C(F)(F)F)c2c1 (racemic) [Compound 314, (±)-6-(2-Methyl-1-piperidino)-4-trifluoromethyl-2(1H)-quinolinone] |  | na (na = not active (i.e. efficacy of <20 and potency of >10,000)) | 5.3 | 4.6 | > 10000 | 83 |  |  |
| O=c1cc(C(F)(F)F)c2cc(N3CCCCC3CO)ccc2[nH]1 (racemic) [Compound 331, (±)-6-(2-Hydroxymethyl-1-piperidino)-4-trifluoromethyl-2(1H)-quinolinone] |  | 42% | 21 | > 1000 | 5.7 | 44 |  |  |
| O=c1cc(C(F)(F)F)c2cc(N3CCCC3Cc3ccccc3)ccc2[nH]1 (racemic) [Compound 341, (±)-6-(2-Benzyl-1-pyrrolidino)-4-trifluoromethyl-2(1H)-quinolinone] |  | 85% | > 10000 | 277 | 15 |  |  |  |
| CC1(C)CC2CC(C)(CN2c2ccc3[nH]c(=O)cc(C(F)(F)F)c3c2)C1 (racemic) [Compound 350, (±)-6-(1,3,3-Trimethyl-6-azabicyclo[3.2.1]octanyl-6-)-4-trifluoromethyl-2(1H)-quinolinone] |  | na (na = not active (i.e. efficacy of <20 and potency of >10,000)) | 29 | 165 | > 10000 | 73 |  |  |
| CC1CN(c2ccc3[nH]c(=O)cc(C(F)(F)F)c3c2)C(C(F)(F)F)O1 (racemic) [Compound 351, (±)-6-(2-Trifluoromethyl-5-cis-methyl-1-oxazolidino)-4-trifluoromethyl-2(1H)-quinolinone] | > 10000 | na (na = not active (i.e. efficacy of <20 and potency of >10,000)) | 23 | 31 |  | 79 |  |  |
| CCCNc1ccc2[nH]c(=O)cc(C(F)(F)F)c2c1 [Compound 204, 6-Propylamino-4-trifluoromethyl-2(1H)-quinolinone] |  |  |  |  |  |  | 72% | 34 |
| CCCCN(CCCC)c1ccc2[nH]c(=O)cc(C(F)(F)F)c2c1 [Compound 220, 6-Dibutylamino-4-trifluoromethyl-2(1H)-quinolinone] |  |  |  |  |  |  | 54% | 68 |
| CCN(c1ccc2[nH]c(=O)cc(C(F)(F)F)c2c1)C(C)C [Compound 239, 6-(N-Ethyl-N-isopropyl)amino-4-trifluoromethyl-2(1H)-quinolinone] |  |  |  |  |  |  | na (key: na = not active (i.e. efficacy of <20 and potency of >10,000)) | 83 |
| Cc1cc(=O)[nH]c2ccc(N(CC(F)(F)F)CC(F)(F)F)cc12 [Compound 377, 6-(bis-2,2,2-Trifluoroethyl)amino-4-methyl-2(1H)-quinolinone] |  |  |  |  |  |  | na (key: na = not active (i.e. efficacy of <20 and potency of >10,000)) | 89 |
| Cc1cc(=O)[nH]c2ccc(N(CC(C)C)CC(F)(F)F)cc12 [Compound 381, 6-(N-Isobutyl-N-2,2,2-trifluoroethyl)amino-4-methyl-2(1H)-quinolinone] |  | na (na = not active (i.e. efficacy of <20 and potency of >10,000)) |  |  |  | 72 |  |  |
| CCCNc1ccc2c(C(F)(F)F)cc(=O)[nH]c2c1 [Compound 513, 7-Propylamino-4-trifluoromethyl-2(1H)-quinolinone] |  |  |  |  |  |  | 84% |  |
| CC(C)Nc1ccc2c(C(F)(F)F)cc(=O)[nH]c2c1 [Compound 514, 7-Isopropylamino-4-trifluoromethyl-2(1H)-quinolinone] |  |  |  |  |  |  | 87% |  |
| O=c1cc(C(F)(F)F)c2ccc(NCC(F)(F)C(F)(F)F)cc2[nH]1 [Compound 520, 7-(2,2,3,3,3-Pentafluoropropyl)amino-4-trifluoromethyl-2(1H)-quinolinone] |  |  |  |  |  |  | 76% |  |
| O=c1cc(C(F)(F)F)c2ccc(NCC(F)(F)F)cc2[nH]1 [Compound 523, 7-(N-2,2,2-Trifluoroethyl)amino-4-trifluoromethyl-2(1H)-quinolinone] |  |  |  |  |  |  | 62% | 29 |
| O=C(Nc1ccc2c(C(F)(F)F)cc(=O)[nH]c2c1)C(F)(F)F [Compound 528, 7-(Trifluoroacetamido)-4-trifluoromethyl-2(1H)-quinolinone] |  | 59% | 1300 |  | 26 | 36 |  |  |
| C=CC(C)(C)Nc1ccc2c(C(F)(F)F)cc(=O)[nH]c2c1 [Compound 559, 7-(1,1-Dimethylallyl)amino-4-trifluoromethyl-2(1H)-quinolinone] |  |  |  |  |  |  | 92% |  |
| CCC(C)c1cc2c(C(F)(F)F)cc(=O)[nH]c2cc1N (centres unmarked) [Compound 581, 7-Amino-6-sec-butyl-4-trifluoromethyl-2(1H)-quinolinone] |  | 23% |  |  |  | 39 |  |  |
